Values quoted from earlier work in US8034370B2, “Ocular implant made by a double extrusion process” (Allergan, Inc., priority 2003, dated 2011).
Like-named read-outs stand apart in the source and are kept apart here.

Experiments:
[1] = in vivo efficacy
[2] = after topical administration

Row | Solubility (Ethanol) | Solubility (Methylene chloride) | Solubility (Water) | fraction reaching the anterior segment [2] | SMILES | potency relative to dexamethasone [1]
1 |  |  |  |  | C[C@]12CCC(=O)C=C1CC[C@@H]1[C@@H]2[C@@H](O)C[C@@]2(C)[C@H]1CC[C@]2(O)C(=O)CO [hydrocortisone] | approximately twenty five
2 | Ethanol: Sparingly soluble | Methylene chloride: slightly soluble | Water: practically insoluble | about 1% | C[C@@H]1C[C@H]2[C@@H]3CCC4=CC(=O)C=C[C@]4(C)[C@@]3(F)[C@@H](O)C[C@]2(C)[C@@]1(O)C(=O)CO [Dexamethasone, pregna-1,4-diene-3,20-dione-9-fluoro-11,17,21-trihydroxy-16-methyl-, (11β,16α)] | 
